Patent publication US8834841B2, “Imaging agents” (priority 2005, dated 2014)

System: SKOV3 Ovarian Tumor Cells Implanted SC in SCID Mice
Test: tissue distribution, SKOV3 tumor-bearing SCID mice
Format: in vivo
Procedure: For the in vitro amino acid uptake studies, all cells can be grown to monolayer confluency in T-175 culture flasks [Corning, Corning, N.Y.] (approx. 1×10^8 cells/flask) in Dulbecco's Modified Eagle's Medium (DMEM) [Sigma, St. Louis, Mo.] in a humidified incubator (37° C., 5% CO2/95% air). Media are supplemented with 10% fetal calf serum [Hyclone, Logan, Utah], and antibiotics (10,000 U/ml penicillin and 10 mg/ml streptomycin) (Sigma, St. Louis, Mo.). For tissue culture passage, monolayer cells are detached by gentle trypsinization, resuspended in complete media, and split 1:10 into new T-flasks. Cultures are passaged weekly, and fed fresh media every 2 to 3 days. To initiate tumor growth in SCID mice, 1×10^6 cells are injected s.c. bilaterally into the flanks (inguinal region) of the recipient animals using a 1 ml syringe with a 27 gauge needle. Ex vivo experiments can be performed with animals containing tumors weighing between 500 mg and 1 g, as estimated by caliper measurement (tumor weight=(π/6)*abc, where a, b and c are the tumor length, width and height, respectively). The compounds of the invention are further evaluated for their tumor specificity and selectivity in tumor-bearing animal models. One can evaluate and compare the transport, accumulation and tissue distribution of each compound in these in vivo animal studies. Tissue distribution of the compounds is measured in SCID mice (average weight, 20-25 g) bearing human tumors as follows. The candidate radioligands (20 uCi in 0.4 ml 0.9% NaCl) are injected into the tail vein of tumor-bearing mice. […] Tissues (blood, heart, liver, lungs, kidneys, bone, thyroid, muscle, brain and tumor) are excised, rinsed in saline, and blotted dry. The tissues are weighed, placed into 12×75 mm glass vials, the radioactivity determined with a gamma counter, and the percent dose/gram calculated. Total activities of blood and muscle are calculated by assuming that they account for 7% and 40% of the total body mass, respectively.

In the case of `NC1(C(=O)O)CCC1[18F]` [Anti-R,S 2-[^18F]FACBC, (R,S) anti-1-amino-2-[^18F]fluorocyclobutyl-1-carboxylic acid], the “% Dose/g blood” value (15 Minutes) is reported as 3.01 % Dose/g, the “% Dose/g bone” value (15 Minutes) is reported as 1.40 % Dose/g and the “% Dose/g brain” value (15 Minutes) is reported as 0.18 % Dose/g. The “% Dose/g heart” value (15 Minutes) was 2.37 % Dose/g, the “% Dose/g kidney” value (15 Minutes) was 8.70 % Dose/g and the “% Dose/g liver” value (15 Minutes) was 2.62 % Dose/g. The “% Dose/g lung” value (15 Minutes) was 3.96 % Dose/g, the “% Dose/g muscle” value (15 Minutes) was 1.14 % Dose/g and the “% Dose/g pancreas” value (15 Minutes) was 34.27 % Dose/g. The “% Dose/g spleen” value (15 Minutes) was 5.00 % Dose/g, the “% Dose/g tumor” value (15 Minutes) was 4.89 % Dose/g and the “% Dose/g blood” value (30 Minutes) was 2.22 % Dose/g. The “% Dose/g bone” value (30 Minutes) was 1.46 % Dose/g, the “% Dose/g brain” value (30 Minutes) was 0.21 % Dose/g and the “% Dose/g heart” value (30 Minutes) was 2.16 % Dose/g. The “% Dose/g kidney” value (30 Minutes) was 6.12 % Dose/g, the “% Dose/g liver” value (30 Minutes) was 2.49 % Dose/g and the “% Dose/g lung” value (30 Minutes) was 2.65 % Dose/g. The “% Dose/g muscle” value (30 Minutes) was 1.21 % Dose/g, the “% Dose/g pancreas” value (30 Minutes) was 31.88 % Dose/g and the “% Dose/g spleen” value (30 Minutes) was 5.22 % Dose/g. For the same compound, the “% Dose/g tumor” value (30 Minutes) was 5.56 % Dose/g, the “% Dose/g blood” value (60 Minutes) was 0.94 % Dose/g and the “% Dose/g bone” value (60 Minutes) was 0.91 % Dose/g. For the same compound, the “% Dose/g brain” value (60 Minutes) was 0.15 % Dose/g, the “% Dose/g heart” value (60 Minutes) was 1.40 % Dose/g and the “% Dose/g kidney” value (60 Minutes) was 2.27 % Dose/g. The “% Dose/g liver” value (60 Minutes) was 1.28 % Dose/g, the “% Dose/g lung” value (60 Minutes) was 1.26 % Dose/g and the “% Dose/g muscle” value (60 Minutes) was 1.03 % Dose/g. The “% Dose/g pancreas” value (60 Minutes) was 17.57 % Dose/g, the “% Dose/g spleen” value (60 Minutes) was 2.57 % Dose/g and the “% Dose/g tumor” value (60 Minutes) was 4.53 % Dose/g. For the same compound, the “% Dose/g blood” value (120 Minutes) was 0.53 % Dose/g, the “% Dose/g bone” value (120 Minutes) was 0.94 % Dose/g and the “% Dose/g brain” value (120 Minutes) was 0.16 % Dose/g. For the same compound, the “% Dose/g heart” value (120 Minutes) was 1.00 % Dose/g, the “% Dose/g kidney” value (120 Minutes) was 1.37 % Dose/g and the “% Dose/g liver” value (120 Minutes) was 0.67 % Dose/g. For the same compound, the “% Dose/g lung” value (120 Minutes) was 0.68 % Dose/g, the “% Dose/g muscle” value (120 Minutes) was 0.65 % Dose/g and the “% Dose/g pancreas” value (120 Minutes) was 10.42 % Dose/g. For the same compound, the “% Dose/g spleen” value (120 Minutes) was 1.51 % Dose/g and the “% Dose/g tumor” value (120 Minutes) was 3.39 % Dose/g.
